Holding throughout (type): cell-based, Staphylococcus aureus
In assay [1] the test system is S. aureus ATCC 35556. Nature of the assay: Planktonic growth curve assay. The conditions noted are these: aerobic planktonic cultures; concentrations up to 8×MBIC; data not shown. The method, then:
However, the specificity of these compounds for inhibiting biofilm growth was verified using an alternative growth curve assay. Planktonic cultures of S. aureus ATCC 35556 were grown aerobically in the presence of various concentrations of Compound 4 (MBIC=3.125 μM). Bacterial cell growth was monitored over time by measuring OD600.

In assay [2] the test system is S. aureus ATCC 35556. The assay can be described thus: Inhibition of biofilm growth at various stages of biofilm development (time of addition). The conditions noted are these: 22 hours total incubation, CV staining. The method, then: Compound 4 was added to bacterial cultures at a concentration of 4XMBIC (12 μM) at various times (0, 1, 2, 4, 6, 8, 10, 12, and 21 hours) over a 22 hour incubation period. Biofilm growth was also followed in parallel cultures in the absence of Compound 4 (untreated controls). Biofilm growth was quantified in samples by staining with crystal violet and measuring OD600. […] See, Example 5 for details.
In this experiment, wells of a 96-well assay plate containing growth medium (0.5×TSB, 0.25% (w/v) glucose) were inoculated with S. aureus ATCC 35556 and incubated at 37° C. At selected times (0, 1, 2, 4, 6, 8, 10, 12, 21 hours) during the incubation period, Compound 4 was added to individual wells at a concentration of 4×MBIC. Biofilms were washed and stained with crystal violet (CV) to measure biofilm growth after the entire assay plate (all cultures) had been incubated for a total of 22 hours. Biofilm growth in the absence of Compound 4 was followed in parallel cultures (untreated control cultures). Samples were taken from untreated cultures at the same times as Compound 4 was added to the inhibition cultures to quantify the level of biofilm growth by the CV staining method. […]

In assay [3] the test system is S. aureus strain NRS-77. Nature of the assay: MBIC/MIC secondary assay. The conditions noted are these: for MIC: Staphylococcus aureus, NRS77. The method, then: Assays for detecting and measuring bacterial biofilm formation are known in the art. An example of a biofilm formation assay useful in detecting and characterizing biofilm inhibitor compounds is described in Example 1, infra. Briefly, bacterial cells are inoculated into growth medium in individual wells of a 96-well assay plate in the presence or absence of a compound (known biofilm inhibitor or test compound). After incubation for a specified time, growth medium and non-biofilm bacterial cells are removed from each of the wells. The bacterial cells in any biofilms that are adhered to the surface of a well are fixed by addition of ethanol. The ethanol is removed, and the fixed biofilm bacteria cells are stained with crystal violet (CV). The intensity of CV staining is directly correlated with bacterial biofilm formation and is measured in the wells by reading the optical density at 600 nm (OD600). The difference in biofilm formation between untreated control and treated cultures provides an indication of relative biofilm inhibition activity (anti-biofilm activity). Use of different concentrations of an inhibitor in multiple and otherwise duplicate cultures permits determination of a compound's Minimal Biofilm Inhibitory Concentration (MBIC), which is defined herein as the lowest concentration of a compound that inhibits biofilm formation by at least 80% (i.e., ≧80%) compared to untreated control cultures. […]
A secondary assay provided a quantitative measure of both anti-biofilm activity and antibacterial activity in terms of the Minimal Biofilm Inhibitory Concentration (MBIC) and the Minimal Inhibitory Concentration (MIC), respectively. The MBIC and MIC are defined as the lowest compound concentrations that inhibit biofilm formation and bacterial growth, respectively, by at least 80% (i.e., ≧80%). The MBIC/MIC assay is formatted in a manner that is similar to the Microbroth dilution assays described by the Clinical and Laboratory Standards Institute (CLSI; formerly NCCLS) in protocol M7-A7. The growth conditions were optimized for biofilm growth in 96-well assay plates such that the resulting CV staining was within the linear range of detection. Therefore, the MBIC/MIC assay provided a stringent measure of anti-biofilm activity.
The assay was adapted for several biofilm-forming strains of S. epidermidis, S. aureus, Enterococcus faecalis, and Pseudomonas aeruginosa. Briefly, 96-well assay plates contained a two-fold dilution series for up to 8 compounds (one compound/row) and untreated controls (concentration range of 0.2 μM-100 μM). The assay plates were inoculated with the test bacterial species, e.g., S. epidermidis 18972 (0.5×TSB, 0.25% glucose) or S. aureus ATCC 35556 (0.5×TSB, 1% glucose). The inocula were prepared by diluting an overnight culture 1:100 in fresh media, which corresponds to approximately 5×10^6 cells/well. After inoculation, the assay plates were sealed with foil tape and incubated for 18 h-20 h at 37° C. The assay plates were processed, and the percent inhibition of growth (% INH-Growth) and percent inhibition of biofilm formation (% INH-Biofilm) were calculated as described above. […] Compounds with an MBIC≦10 μM and an MIC/MBIC ratio≧8 for either S. epidermidis or S. aureus were designated as validated hits.
Minimal Biofilm Inhibitory Concentration (MBIC) and Minimal Inhibitory Concentration (MIC) of the compounds in Table 3 were determined against various strains of biofilm-forming bacteria.

The record followed here is patent US20110098323A1, “INHIBITORS OF BACTERIAL BIOFILM FORMATION” (MICROBIOTIX, INC., priority 2009, published 2011).

Structures are written as SMILES. Read-outs that look alike come from different tables or passages of the source.

In general, MIC refers to the smallest concentration in the dilution series that meets the test's criterion for growth inhibition. For the compound `CCOc1cc(/C=C2\SC(=S)N(c3ccc(F)cc3)C2=O)ccc1O` [Compound 4, 3-(4-fluorophenyl)-5-(3-ethoxy-4-hydroxybenzylidene)-2-thioxothiazolidin-4-one], the “effect on planktonic bacterial cell growth (OD600 over time)” value in assay [1] is “did not affect”. Besides, in assay [2] (Compound added at 4×MBIC at early stages (up to 2 h)), the “inhibition of biofilm formation, early stages” value is “inhibited”. In assay [2] (Compound added at 4×MBIC to maturing biofilms (8-16 h)), the “inhibition of biofilm formation, maturing biofilms” value is “resistant”. Besides, the MBIC in assay [3] (S. aureus strain NRS-77) came out at 25 µM. The minimal inhibitory concentration (MIC) in assay [3] is at least 100 µM.

`CCOc1cc(/C=C2\SC(=S)N(c3cccc(F)c3)C2=O)ccc1O` [Compound 8, 3-(3-fluorophenyl)-5-(3-ethoxy-4-hydroxybenzylidene)-2-thioxothiazolidin-4-one]: in assay [3] (S. aureus strain NRS-77), the MBIC was found to be 25 µM. In addition, in assay [3], the MIC is at least 100 µM.

Compound `C=CCOc1cc(/C=C2\SC(=S)N(c3ccc(F)cc3)C2=O)ccc1O` [Compound 29, 3-(4-fluorophenyl)-5-(3-allyloxy-4-hydroxybenzylidene)-2-thioxothiazolidin-4-one] returned an MBIC in assay [3] (S. aureus strain NRS-77) of 12.5 µM. Further, in assay [3] (S. aureus strain NRS-77, read-out: MIC), the minimal inhibitory concentration (MIC) was at least 100 µM.

For the compound `CCOc1cc(/C=C2\SC(=S)N(c3cccc(C#N)c3)C2=O)ccc1O` [Compound 34, 3-(3-cyanophenyl)-5-(3-ethoxy-4-hydroxybenzylidene)-2-thioxothiazolidin-4-one], the MBIC in assay [3] (S. aureus strain NRS-77) was 12.5 µM. In assay [3], this compound came in with an MIC of at least 100 µM.

As for `CCOc1cc(/C=C2\SC(=S)N(c3cccnc3)C2=O)ccc1O` [Compound 36, 3-(pyridin-3-yl)-5-(3-ethoxy-4-hydroxybenzylidene)-2-thioxothiazolidin-4-one], in assay [3] (S. aureus strain NRS-77), the MBIC is 12.5 µM. For the same compound, the MIC in assay [3] is at least 100 µM.

For `CCOc1cc(/C=C2\SC(=S)N(c3ccc(F)nc3)C2=O)ccc1O` [Compound 40, 3-(6-fluoropyridin-3-yl)-5-(3-ethoxy-4-hydroxybenzylidene)-2-thioxothiazolidin-4-one], in assay [3] (S. aureus strain NRS-77), the MBIC amounted to 6.3 µM. The same compound displayed a minimal inhibitory concentration (MIC) in assay [3] of at least 100 µM.
